Test results reported in paper PMC8842605, “Novel Derivatives of diphenyl-1,3,4-oxadiazol as Ligands of Benzodiazepine Receptors; Synthesize, Binding Assay and Pharmacological Evaluation” (Iranian Journal of Pharmaceutical Research : IJPR, 2021).

Columns and labels:
benzodiazepine receptor = assay: Radioligand competition binding with [3H]-flumazenil; conditions: rat brain membrane; for IC50: 35 min at 30 °C, read-out: IC50 (95% CI); for Ki: Cheng-Prussof equation
Protocol: Temporarily, the brain tissue of Male Sprague-Dawley rats (200-250 g weight) were used as the source of the benzodiazepine receptors. These tissues were collected, homogenized in 20 mL of ice‐cold Tris‐HCl buffer and centrifuged at 600 g for 10 min. in the next step, the supernatant was centrifuged 37000xg for 15 min at 4 °C. […] The Bradford method using bovine serum albumin as a standard, was applied for quantification of protein in the separated membrane. Saturation and competition experiments are two basic methods of receptor binding studies. […] NSB was determined in parallel assays performed in the presence of 100 μM diazepam. Competition experiments were used to measure the percentage inhibition of radioligand specific binding (IC50) and affinity (Ki) of the novel synthesized ligands and diazepam, using the Cheng-Prussof equation.

mice [1] = assay: Open field test; type: in vivo; conditions: Mus musculus, ip, intraperitoneal, 30 min before test, total distance movement, read-out: ED50 (95% CI), Open field test
Protocol: To the assessment of the sedative effects and locomotor activities of the novel synthesized compounds, the open field test was performed. […] The total distance movement was recorded for 10 min by a digital camera and then was calculated by an automated tracking system (Ethovision XT software, Noldus, The Netherlands) ([24]).

mice [2] = assay: Elevated plus maze test; type: in vivo; conditions: Mus musculus, percentage of time spent in open arms, read-out: ED50 (95% CI), Elevated plus maze test
Protocol: To assay the anti-anxiety effects of novel synthesized compounds, the elevated plus-maze test was used. The apparatus of the elevated plus-maze test is prepared of two open arms (30 × 5 × 0.5 cm) and two close arms (30 × 5 × 35 cm) with an open roof and was set at a height of 50 cm above the floor.

mice [3] = assay: Grip strength test; type: in vivo; conditions: Mus musculus, 0.5 h, read-out: ED50 (95% CI), Grip strength test
Protocol: To assessment the muscle relaxant effects of novel synthesized compounds by measuring the maximum force applied to the digital force meter, the grip strength test was prepared. This assessment was guided using the modified method explained by Bachstetter et al. (2014). The test was repeated 3 times for each mouse, 30 min after injection of the novel compounds ([29]).

[4] = tested on: maximal electro shock-induced seizure; assay: Maximal electro shock (MES) test; type: in vivo; conditions: Mus musculus, 0.5 h; mice, 30 min after administration; 60 Hz, 50 mA, 0.2 s; HLTE; read-out: ED50 (95% CI), MES test
Description: (§1) Two useful seizure models (MES and PTZ) were organized for evaluation of the anticonvulsant activities of novel synthesized compounds. In these experiments, the capability of novel synthesized compounds to prevent the maximal electro shock-induced seizure and pentylenetetrazol-induced seizure were screened. MES test (60 Hz, 50 mA, 0.2 s) was done according to the method described by Toolabi et al. (2020). PTZ test was done Using the mothed described by Ranjbar-ekbatan et al. (2019). These experiments were applied 30 min after administration of the novel compounds. The number of HLTE (hind limb tonic extension) in the MES test and the number of dead animals in the PTZ test were counted ([30]–[32]).

[5] = tested on: pentylenetetrazol-induced seizure; assay: Pentylenetetrazol (PTZ) test; type: in vivo; conditions: Mus musculus, 0.5 h; mice, 30 min after administration; number of dead animals; read-out: ED50 (95% CI), PTZ test
Description: as §1

mice [6] = assay: Pentobarbital induced sleep test; conditions: Mus musculus, read-out: ED50 (95% CI), Pentobarbital induced Sleeping test
mice [7] = assay: Rotarod test; type: in vivo; conditions: 30 min after injection, 6 rpm, 1 min, Diazepam 2 mg/kg
Protocol: For evaluation of the motor coordination and balance capability, the rotarod test was used. Concisely, 30 min after injection of the novel compounds and Diazepam (2 mg/kg), each animal was located on a rotating rod (6 rpm, 1 min). In this experiment, the average time latency to fall for each animal was noted ([33]).

mice [8] = assay: Passive avoidance test; type: in vivo; conditions: Diazepam 2 mg/kg
Description: To determine the effects of novel synthesized compounds on learning and memory disorder, the passive avoidance test was done. The passive avoidance apparatus consists of two compartments, that one of them is brightly lit (white compartment) and another one is dimly lit (black compartment). A sliding door divides these two compartments. […] After arriving in the black compartment, it was received a mild unpleasant electrical stimulation (0.5 mA for 2 s) through the grid floor. During the test phase, the animal was relocated in the white compartment. However, there was no electric stimulation in the dark compartment. The latency to enter the dark compartment was recounted ([34],[35]).

[9] = mice, 30 min after injection, maximum force

| SMILES | IC50 (benzodiazepine receptor) | Ki (benzodiazepine receptor) | ED50 (mice [1]) | ED50 (mice [2]) | ED50 (mice [3]; [9]) | ED50 [4] | ED50 [5] | melting point | ED50 (mice [6]) | ED50 (mice [3]) | latency to fall in rotarod test vs control (mice [7]) | latency to enter the dark compartment in passive avoidance test vs control (mice [8]) |
| --- | --- | --- | --- | --- | --- | --- | --- | --- | --- | --- | --- | --- |
| O=C(Nc1ccccc1-c1nnc(-c2ccccc2)o1)c1ccc([N+](=O)[O-])cc1 [Compound 7e, 4-nitro-N-(2-(5-phenyl-1,3,4-oxadiazol-2-yl)phenyl)benzamide] | 9.16 nM | 5.32 nM | 19.1 mg/kg | 9.96 mg/kg | 25.7 mg/kg | 24.2 mg/kg | 45.2 mg/kg | 195 to 197 °C | 19.6 mg/kg | – | – | – |
| CN1C(=O)CN=C(c2ccccc2)c2cc(Cl)ccc21 [Diazepam, reference compound] | 1.71 nM | 0.99 nM | 1.69 mg/kg | 2.24 mg/kg | – | 1.32 mg/kg | 1.01 mg/kg | – | 1.98 mg/kg | 2.27 mg/kg | significant decrease in latency to fall | significant reduction in latency to enter the dark compartment |
| Cc1ccc(C(=O)Nc2ccccc2-c2nnc(-c3ccccc3)o2)cc1 [Compound 7d, 4-methyl-N-(2-(5-phenyl-1,3,4-oxadiazol-2-yl)phenyl)benzamide] | 4.26 nM | 2.47 nM | 18.8 mg/kg | 12.6 mg/kg | 29.4 mg/kg | 92.5 mg/kg | 109 mg/kg | 200 to 202 °C | 13.1 mg/kg | – | – | – |
| O=C(O)c1ccccc1C(=O)Nc1ccccc1-c1nnc(-c2ccccc2)o1 [Compound 7i, 2-((2-(5-phenyl-1,3,4-oxadiazol-2-yl)phenyl)carbamoyl)benzoic acid] | 1.54 nM | – | 7.14 mg/kg | 8.71 mg/kg | 13.2 mg/kg | 26.7 mg/kg | 45.1 mg/kg | 196 to 198 °C | 4.64 mg/kg | – | – | – |
| O=C(Nc1ccccc1-c1nnc(-c2ccccc2)o1)c1ccc(F)cc1 [Compound 7c, 4-fluoro-N-(2-(5-phenyl-1,3,4-oxadiazol-2-yl)phenyl)benzamide] | 6.05 nM | 3.51 nM | 19.7 mg/kg | 13.7 mg/kg | 30.9 mg/kg | 105 mg/kg | 118 mg/kg | 189 to 190 °C | 17.1 mg/kg | – | – | – |
| O=C(O)CCC(=O)Nc1ccccc1-c1nnc(-c2ccccc2)o1 [Compound 7j, 4-oxo-4-((2-(5-phenyl-1,3,4-oxadiazol-2-yl)phenyl)amino)butanoic acid] | 1.66 nM | 0.96 nM | 8.9 mg/kg | 9.77 mg/kg | 17.1 mg/kg | 40.8 mg/kg | 60.9 mg/kg | 159 to 160 °C | 4.98 mg/kg | – | – | – |
| CC(=O)Nc1ccccc1-c1nnc(-c2ccccc2)o1 [Compound 7g, N-(2-(5-phenyl-1,3,4-oxadiazol-2-yl)phenyl)acetamide] | 2.78 nM | 1.61 nM | 14 mg/kg | 12.8 mg/kg | 28.8 mg/kg | 186 mg/kg | 147 mg/kg | 155 to 157 °C | 9.45 mg/kg | – | – | – |
| COc1ccc(C(=O)Nc2ccccc2-c2nnc(-c3ccccc3)o2)cc1 [Compound 7f, 4-methoxy-N-(2-(5-phenyl-1,3,4-oxadiazol-2-yl)phenyl)benzamide] | 3.03 nM | 1.76 nM | 14.5 mg/kg | 12.7 mg/kg | 26.7 mg/kg | 136 mg/kg | 136 mg/kg | 216 to 217 °C | 9.91 mg/kg | – | – | – |
| O=C(Nc1ccccc1-c1nnc(-c2ccccc2)o1)c1ccccc1 [Compound 7a, N-(2-(5-phenyl-1,3,4-oxadiazol-2-yl)phenyl)benzamide] | 10.2 nM | 5.95 nM | 27.7 mg/kg | 15.3 mg/kg | 34.9 mg/kg | 235 mg/kg | 276 mg/kg | 188 to 189 °C | 22.7 mg/kg | – | – | – |
| CCC(=O)Nc1ccccc1-c1nnc(-c2ccccc2)o1 [Compound 7h, N-(2-(5-phenyl-1,3,4-oxadiazol-2-yl)phenyl) propionamide] | 2.57 nM | 1.49 nM | 10.1 mg/kg | 11.8 mg/kg | 24.6 mg/kg | 118 mg/kg | 136 mg/kg | 163 to 165 °C | 5.28 mg/kg | – | – | – |
| O=C(Nc1ccccc1-c1nnc(-c2ccccc2)o1)c1ccc(Cl)cc1 [Compound 7b, 4-chloro-N-(2-(5-phenyl-1,3,4-oxadiazol-2-yl)phenyl)benzamide] | 7.62 nM | 4.43 nM | 21.3 mg/kg | 11.8 mg/kg | 31.5 mg/kg | 163 mg/kg | 180 mg/kg | 195 to 197 °C | 19.4 mg/kg | – | – | – |
